# Patent US6630469B2, “5-HT7 receptor antagonists” (Bristol-Myers Squibb Company, priority 2000, dated 2003)
# Where “and” joins values, the source holds several entries; their conditions need not be identical. Equal values may be shown once.
# Target: T1, human 5-HT7 receptor (Homo sapiens, UniProt P34969)
# T1 construct: expressed in transfected cells; host or cells: CHO cells
# Experiment: 5-HT7 Receptor Binding Assay
# Details: membranes of CHO cells expressing human 5-HT7 receptor; 1 nM 3H-5-carboxamidotryptamine; 25° C., 60 minutes
# Experimental: 5-HT7 Receptor Binding Assay
# Membranes are prepared for binding using the human 5-HT7 receptor expressed in CHO cells. Cells are collected and ruptured using a dounce homogenizer. The cells are spun at 18000× g for 10 minutes and the pellet is resuspended in assay buffer, frozen in liquid nitrogen and kept at −80° C. until the day of the assay.
# A total of 30 ug protein is used per well. The assay is carried out in 96-deep-well plates. The assay buffer is 50 mM HEPES. The membrane preparation is incubated at 25° C. for 60 minutes with 0.1 nM to 1000 nM test compound and 1 nM ^3H-5-carboxamidotryptamine. 10 uM serotonin is used as blocking agent to determine non-specific binding. The reaction is terminated by the addition of 1 ml of ice cold 5OmM HEPES buffer and rapid filtration through a Brandel Cell Harvester using Whatman GF/B filters. The filter pads are counted in an LKB Trilux liquid scintillation counter. IC50 values are determined using non-linear regression by Exel-fit.
# T1 sequence (P34969 whole entry): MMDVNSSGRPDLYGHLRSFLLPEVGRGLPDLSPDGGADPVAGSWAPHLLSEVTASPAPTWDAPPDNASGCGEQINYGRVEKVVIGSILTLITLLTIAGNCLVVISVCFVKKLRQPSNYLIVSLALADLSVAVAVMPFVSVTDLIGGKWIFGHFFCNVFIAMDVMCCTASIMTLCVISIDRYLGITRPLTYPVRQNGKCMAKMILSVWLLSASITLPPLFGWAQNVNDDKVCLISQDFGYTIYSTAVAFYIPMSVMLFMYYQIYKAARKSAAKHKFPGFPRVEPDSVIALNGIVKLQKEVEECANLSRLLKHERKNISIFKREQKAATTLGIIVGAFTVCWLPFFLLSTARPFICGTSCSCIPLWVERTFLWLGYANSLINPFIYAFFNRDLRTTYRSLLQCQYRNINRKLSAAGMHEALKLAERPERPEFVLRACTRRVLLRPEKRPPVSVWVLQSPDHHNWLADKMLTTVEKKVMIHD
compound,measurement,value
"CC(Nc1nc(N)nc(NC[C@@H]2C[C@H]2c2ccncc2)n1)c1ccccc1 (mixture of isomers) [(±)-trans-N-(1-Phenyl-ethyl)-N′-(2-pyridin-4-yl-cyclopropylmethyl)-[1,3,5]triazine-2,4,6-triamine]",IC50,≤ 50 nM
"CC(Nc1nc(N)nc(NC[C@@H]2C[C@H]2c2ccccc2F)n1)c1ccccc1 (mixture of isomers) [(±)-trans-N-[2-(2-Fluoro-phenyl)-cyclopropylmethyl]-N′-(1-phenyl-ethyl)-[1,3,5]triazine-2,4,6-triamine]",IC50,≤ 100 nM and > 50 nM
"CC(Nc1nc(N)nc(NC[C@@H]2C[C@H]2c2ccc(F)cc2)n1)c1ccccc1 (mixture of isomers) [(±)-trans-N-[2-(4-Fluoro-phenyl)-cyclopropylmethyl]-N′-(1-phenyl-ethyl)-[1,3,5]triazine-2,4,6-triamine]",IC50,≤ 100 nM and > 50 nM
"C[C@H](Nc1nc(N)nc(NC[C@H]2C[C@@H]2c2ccccc2F)n1)c1ccccc1 [(S,S)-trans-N-[2-(2-Fluoro-phenyl)-cyclopropylmethyl]-N′-(1-phenyl-ethyl)-[1,3,5]triazine-2,4,6-triamine]",IC50,≤ 50 nM
"C[C@H](Nc1nc(N)nc(NC[C@H]2C[C@@H]2c2ccc(F)cc2)n1)c1ccccc1 [(S,S)-trans-N-[2-(4-Fluoro-phenyl)-cyclopropylmethyl]-N′-(1-phenyl-ethyl)-[1,3,5]triazine-2,4,6-triamine]",IC50,≤ 50 nM
"CC(Nc1ccnc(NCCc2cccnc2)n1)c1ccccc1 (stereo not drawn) [Compound 1, N^4-(1-Phenylethyl)-N^2-[2-(3-pyridinyl)ethyl]pyrimidine-2,4-diamine]",IC50,101 to 200 nM
"c1ccc(CCNc2nccc(NCc3ccco3)n2)cc1 [Compound 2, N^4-(2-Furanylmethyl)-N^2-(2-phenylethyl)pyrimidine-2,4-diamine]",IC50,101 to 200 nM
CC(Nc1ccnc(NCCc2c[nH]c3ccc(F)cc23)n1)c1ccccc1 (stereo not drawn) [Compound 3],IC50,101 to 200 nM
"c1ccc(OCCNc2nccc(NCc3ccco3)n2)cc1 [Compound 4, N^4-(2-Furanylmethyl)-N^2-(2-phenoxyethyl)pyrimidine-2,4-diamine]",IC50,101 to 200 nM
"NC(=O)c1cccc(CNc2ccnc(NCCOc3ccccc3)n2)c1 [Compound 6, N^4-[3-(Aminocarbonyl)phenylmethyl]-N^2-(2-phenoxyethyl)pyrimidine-2,4-diamine]",IC50,51 to 100 nM
"CC(Nc1nccc(NCCc2c[nH]c3ccccc23)n1)c1ccccc1 (stereo not drawn) [Compound 7, N^4-[2-(1H-Indol-3-yl)ethyl]-N^2-(1-phenylethyl)pyrimidine-2,4-diamine]",IC50,51 to 100 nM
"CC(Nc1ccnc(NCCc2cccc(Br)c2)n1)c1ccccc1 (stereo not drawn) [Compound 8, N^2-[2-(3-Bromophenyl)ethyl]-N^4-(1-phenylethyl)pyrimidine-2,4-diamine]",IC50,51 to 100 nM
"CC(Nc1ccnc(NCCc2ccc(Br)cc2)n1)c1ccccc1 (stereo not drawn) [Compound 9, N^2-[2-(4-Bromophenyl)ethyl]-N^4-(1-phenylethyl)pyrimidine-2,4-diamine]",IC50,51 to 100 nM
"CC(Nc1ccnc(NC2Cc3ccccc3C2)n1)c1ccccc1 (stereo not drawn) [Compound 10, N^2-(Indan-2-yl)-N4-(1-phenylethyl)pyrimidine-2,4-diamine]",IC50,51 to 100 nM
"c1ccc(CCNc2nccc(NCc3cccnc3)n2)cc1 [Compound 11, N^2-(2-Phenylethyl)-N^4-(3-pyridinylmethyl)pyrimidine-2,4-diamine]",IC50,51 to 100 nM
"CC(Nc1ccnc(NCCc2ccccn2)n1)c1ccccc1 (stereo not drawn) [Compound 12, N^4-(1-Phenylethyl)-N^2-[2-(2-pyridinyl)ethyl]pyrimidine-2,4-diamine]",IC50,51 to 100 nM
"C[C@H](Nc1ccnc(NCCOc2ccccc2)n1)c1ccc(Br)cc1 [Compound 13, N^4-[(1S)-1-(4-Bromophenyl)ethyl]-N^2-(2-phenoxyethyl)pyrimidine-2,4-diamine]",IC50,≤ 50 nM
"CS(=O)(=O)Nc1cccc(CNc2ccnc(NCCOc3ccccc3)n2)c1 [Compound 14, N^4-{3-[(Methylsulfonyl)amino]phenylmethyl}-N^2-(2-phenoxyethyl)pyrimidine-2,4-diamine]",IC50,≤ 50 nM
"c1ccc(OCCNc2nccc(NCc3cccc4ccccc34)n2)cc1 [Compound 16, N^4-(1-Napthalenylmethyl)-N^2-(2-phenoxyethyl)pyrimidine-2,4-diamine]",IC50,≤ 50 nM
"C[C@H](Nc1ccnc(NCCOc2ccccc2)n1)c1cccc2ccccc12 [Compound 17, N^4-[(1S)-1-(1-Napthalenyl)ethyl]-N^2-(2-phenoxyethyl)pyrimidine-2,4-diamine]",IC50,≤ 50 nM
"c1ccc(OCCNc2nccc(NCc3cccs3)n2)cc1 [Compound 18, N^2-(2-Phenoxyethyl)-N^4-(2-thienylmethyl)pyrimidine-2,4-diamine]",IC50,≤ 50 nM
"c1ccc(OCCNc2nccc(NCc3ccncc3)n2)cc1 [Compound 19, N^2-(2-Phenoxyethyl)-N^4-(4-pyridinylmethyl)pyrimidine-2,4-diamine]",IC50,≤ 50 nM
"c1ccc(OCCNc2nccc(NCc3cccnc3)n2)cc1 [Compound 20, N^2-(2-Phenoxyethyl)-N^4-(3-pyridinylmethyl)pyrimidine-2,4-diamine]",IC50,≤ 50 nM
"CC(Nc1ccnc(NCCc2cccc(O)c2)n1)c1ccccc1 (stereo not drawn) [Compound 21, N^2-[2-(3-Hydroxyphenyl)ethyl]-N^4-(1-phenylethyl)pyrimidine-2,4-diamine]",IC50,≤ 50 nM
"CC(Nc1ccnc(NCCc2cccc(C#N)c2)n1)c1ccccc1 (stereo not drawn) [Compound 22, N^2-[2-(3-Cyanophenyl)ethyl]-N^4-(1-phenylethyl)pyrimidine-2,4-diamine]",IC50,≤ 50 nM
"CC(Nc1ccnc(NCCC2=CCCCC2)n1)c1ccccc1 (stereo not drawn) [Compound 23, N^2-[2-(1-Cyclohexenyl)ethyl]-N^4-(1-phenylethyl)pyrimidine-2,4-diamine]",IC50,≤ 50 nM
"C[C@H](Nc1ccnc(NCCc2ccccc2)n1)c1cccc2ccccc12 [Compound 24, N^4-[(1S)-1-(1-Napthalenyl)ethyl]-N^2-(2-phenylethyl)pyrimidine-2,4-diamine]",IC50,≤ 50 nM
"Ic1cccc(CNc2ccnc(NCCc3ccccc3)n2)c1 [Compound 25, N^4-(3-Iodophenylmethyl)-N^2-(2-phenylethyl)pyrimidine-2,4-diamine]",IC50,≤ 50 nM
"Brc1cccc(CNc2ccnc(NCCc3ccccc3)n2)c1 [Compound 26, N^4-(3-Bromophenylmethyl)-N^2-(2-phenylethyl)pyrimidine-2,4-diamine]",IC50,≤ 50 nM
"c1ccc(CCNc2nccc(NCc3cccs3)n2)cc1 [Compound 27, N^2-(2-Phenylethyl)-N^4-(2-thienylmethyl)pyrimidine-2,4-diamine]",IC50,≤ 50 nM
"CC(Nc1ccnc(NCCn2ccc3ccccc32)n1)c1ccccc1 (stereo not drawn) [Compound 28, N^2-[2-(1H-Indol-1-yl)ethyl]-N^4-(1-phenylethyl)pyrimidine-2,4-diamine]",IC50,≤ 50 nM
"CC(Nc1ccnc(NCCc2cccs2)n1)c1ccccc1 (stereo not drawn) [Compound 29, N^4-(1-Phenylethyl)-N^2-[2-(2-thienyl)ethyl]pyrimidine-2,4-diamine]",IC50,≤ 50 nM
"CC(Nc1ccnc(N(C)CCc2c[nH]c3ccccc23)n1)c1ccccc1 (stereo not drawn) [Compound 30, N^2-[2(1H-Indol-3-yl)ethyl]-N^2-(methyl)-N^4-(1-phenylethyl)pyrimidine-2,4-diamine]",IC50,≤ 50 nM
"CC(Nc1ccnc(NCCc2c[nH]c3cc(F)ccc23)n1)c1ccccc1 (stereo not drawn) [Compound 31, N^2-[2-(6-Fluoro-1H-indol-3-yl)ethyl]-N^4-(1-phenylethyl)pyrimidine-2,4-diamine]",IC50,≤ 50 nM
"CC[C@H](Nc1nc(N)nc(NCCc2ccc(Cl)cc2)n1)c1ccccc1 [Compound 32, N^2-[2-(4-Chlorophenyl)ethyl]-N^4-[(1S)-1-phenylpropyl]-1,3,5-triazine-2,4,6-triamine]",IC50,101 to 200 nM
"CC[C@H](Nc1nc(N)nc(NCCc2ccc(Cl)c(Cl)c2)n1)c1ccccc1 [Compound 33, N^2-[2-(3,4-Dichlorophenyl)ethyl]-N^4-[(1S)-1-phenylpropyl]-1,3,5-triazine-2,4,6-triamine]",IC50,101 to 200 nM
"Cc1ccc(CCNc2nc(N)nc(N[C@@H](C)c3ccc(Br)cc3)n2)cc1 [Compound 34, N^2-[(1S)-1-(4-Bromophenyl)ethyl]-N^4-[2-(4-methylphenyl)ethyl]-1,3,5-triazine-2,4,6-triamine]",IC50,101 to 200 nM
"CC[C@H](Nc1nc(N)nc(NCC(C)c2ccccc2)n1)c1ccccc1 (stereo partly drawn) [Compound 35, N^2-[(1S)-1-Phenylpropyl]-N^4-(2-phenylpropyl)-1,3,5-triazine-2,4,6-triamine]",IC50,101 to 200 nM
"CC[C@H](Nc1nc(N)nc(NCCc2cccc(C(F)(F)F)c2)n1)c1ccccc1 [Compound 36, N^2-[(1S)-1-Phenylpropyl]-N^4-[2-(3-(trifluoromethyl)phenyl)ethyl]-1,3,5-triazine-2,4,6-triamine]",IC50,101 to 200 nM
"CC(CNc1nc(N)nc(N[C@@H](C)c2ccccc2)n1)c1ccccc1 (stereo partly drawn) [Compound 37, N^2-[(1S)-1-Phenylethyl]-N^4-(2-phenylpropyl)-1,3,5-triazine-2,4,6-triamine]",IC50,101 to 200 nM
"C[C@H](Nc1nc(N)nc(NCCNc2ccccc2)n1)c1cccc2ccccc12 [Compound 38, N^2-[(1S)-1-(1-Napthalenyl)ethyl]-N^4-[2-(phenylamino)ethyl]-1,3,5-triazine-2,4,6-triamine]",IC50,101 to 200 nM
"C[C@H](Nc1nc(N)nc(NCCc2ccc(Br)cc2)n1)c1ccc([N+](=O)[O-])cc1 [Compound 39, N^2-[2-(4-Bromophenyl)ethyl]-N^4-[(1S)-1-(4-nitrophenyl)ethyl]-1,3,5-triazine-2,4,6-triamine]",IC50,101 to 200 nM
